From patent publication US20150246093A1, “ORAL FORMULATIONS OF ANGIOTENSIN” (TARIX PHARMACEUTICALS LTD., priority 2012, published 2015)
Values joined by “and” are separate entries in the source; they are usually repeats but may differ in a detail not shown here. Identical values can stand only once. Like-named read-outs stand apart in the source and are kept apart here.

Assay: Pharmacokinetics after intra-duodenal injection (ID) in anesthetized rats, model mimicking enteric-coated oral dosage form, plasma LC-MS
Assay type: in vivo, rat
Conditions: for Total mean A(1-7) exposure over the observation period: ID; for level at 0 h / level at 10 min / level at 20 min / level at 40 min / level at 1 h / level at 1.5 h / level at 5 min: read-out: Angiotensin (1-7) concentration
Protocol: This model mimics the release and absorption expected from an orally delivered enteric coated solid dosage form such as capsule or tablet.
After extraction, the samples were then transferred to ice-cold tubes containing a protease inhibitor cocktail. The samples were kept on ice until they were centrifuged at 4° C. to obtain plasma. The plasma supernatants were then frozen −70° C. until analysis using an LC-MS assay.
The oral delivery of an angiotensin (1-7) peptide (e.g., TXA127) was then evaluated in a rat model that mimics the release of the peptide into the intestine by enteric-coated capsule. Briefly, the duodenums of anesthetized rats were surgically exposed, and an angiotensin (1-7) peptide was delivered through a 27 gauge needle into the duodenum. A baseline was obtained by ID administration of an angiotensin (1-7) in PBS. Samples of blood was removed from the carotid artery before and 5, 10, 20, 40, 60 and 90 minutes after peptide administration. Subsequently, an angiotensin (1-7) peptide was administered ID in 400 mM citrate buffer (pH 3.5) and lauroyl-L-carnitine (LLC) (10 mg/ml), a formulation that mimics the contents of the enteric-coated capsules. In order to maximize the stability of TXA127 in rat circulation, captopril (e.g., 0.5 mg/ml or 5 mg/ml) may be added to the formulations. Blood samples were taken at the same time points as the baseline study and handled as described above for analysis.

[1] = ID 0.3 ml A [10 mg/ml in PBS], individual rats
[2] = ID 0.3 ml B [10 mg/ml, 10 mg/ml LLC, 400 mM Citrate pH 3.5, 150 mM NaCl], individual rats
[3] = ID 0.3 ml C [10 mg/ml, Captopril 0.5 mg/ml, 10 mg/ml LLC, 400 mM Citrate pH 3.5, 150 mM NaCl], individual rats
[4] = ID 0.3 ml C [10 mg/ml, Captopril 5 mg/ml, 10 mg/ml LLC, 400 mM Citrate pH 3.5, 150 mM NaCl], individual rats

CC[C@H](C)[C@H](NC(=O)[C@H](Cc1ccc(O)cc1)NC(=O)[C@@H](NC(=O)[C@H](CCCNC(=N)N)NC(=O)[C@@H](N)CC(=O)O)C(C)C)C(=O)N[C@@H](Cc1c[nH]cn1)C(=O)N1CCC[C@H]1C(=O)O [Angiotensin (1-7), Asp^1-Arg^2-Val^3-Tyr^4-Ile^5-His^6-Pro^7]
AUC0-90 [1]: 123 ng·min/mL and 881 ng·min/mL and 181 ng·min/mL and 456 ng·min/mL and 166 ng·min/mL and 616 ng·min/mL | Cmax [1]: 3.44 ng/mL and 15 ng/mL and 4 ng/mL and 9 ng/mL and 3 ng/mL and 10.4 ng/mL | Half-Life [1]: 51 min and 140 min and 23 min and 7 min | Angiotensin (1-7) concentration (ID 0.3 ml A [10 mg/ml in PBS], time point 0 min (before administration), individual rats): 0.23 ng/mL and 0.0 ng/mL and 1.54 ng/mL and 1.00 ng/mL and 1.84 ng/mL and 5.81 ng/mL | Angiotensin (1-7) concentration (ID 0.3 ml A [10 mg/ml in PBS], time point 5 min, individual rats): 0.84 ng/mL and 12.3 ng/mL and 0.94 ng/mL and 0.88 ng/mL and 0.891 ng/mL and 9.24 ng/mL | Angiotensin (1-7) concentration (ID 0.3 ml A [10 mg/ml in PBS], time point 10 min, individual rats): 3.44 ng/mL and 6.38 ng/mL and 1.08 ng/mL and 0.99 ng/mL and 1.12 ng/mL and 4.08 ng/mL | Angiotensin (1-7) concentration (ID 0.3 ml A [10 mg/ml in PBS], time point 20 min, individual rats): 0.62 ng/mL and 13.3 ng/mL and 1.91 ng/mL and 1.79 ng/mL and 1.80 ng/mL and 2.05 ng/mL | Angiotensin (1-7) concentration (ID 0.3 ml A [10 mg/ml in PBS], time point 40 min, individual rats): 0.27 ng/mL and 15.4 ng/mL and 1.22 ng/mL and 4.14 ng/mL and 1.30 ng/mL and 3.89 ng/mL | Angiotensin (1-7) concentration (ID 0.3 ml A [10 mg/ml in PBS], time point 60 min, individual rats): 1.55 ng/mL and 6.27 ng/mL and 3.97 ng/mL and 8.75 ng/mL and 3.07 ng/mL and 10.4 ng/mL | Angiotensin (1-7) concentration (ID 0.3 ml A [10 mg/ml in PBS], time point 90 min, individual rats): 2.61 ng/mL and 7.19 ng/mL and 0.78 ng/mL and 7.54 ng/mL and 1.23 ng/mL and 10.4 ng/mL | AUC0-90 [2]: 19,502.2 ng*min/mL and 1,777.5 ng*min/mL and 422.8 ng*min/mL and 1,168.2 ng*min/mL and 2,100.6 ng*min/mL and 669.9 ng*min/mL | Cmax [2]: >1000 ng/mL and 259.0 ng/mL and 19.3 ng/mL and 89.7 ng/mL and 60.7 ng/mL and 56.4 ng/mL | Half-Life [2]: 9.3 min and 173.3 min and 23.8 min and 25.2 min and 21.6 min and 25.0 min | Angiotensin (1-7) concentration (ID 0.3 ml B [10 mg/ml, 10 mg/ml LLC, 400 mM Citrate pH 3.5, 150 mM NaCl], time point 0 min (before administration), individual rats): 1.46 ng/mL | Angiotensin (1-7) concentration (ID 0.3 ml B [10 mg/ml, 10 mg/ml LLC, 400 mM Citrate pH 3.5, 150 mM NaCl], time point 5 min, individual rats): >1000 ng/mL and 259 ng/mL and 3.48 ng/mL and 89.7 ng/mL and 60.7 ng/mL and 56.38 ng/mL | Angiotensin (1-7) concentration (ID 0.3 ml B [10 mg/ml, 10 mg/ml LLC, 400 mM Citrate pH 3.5, 150 mM NaCl], time point 10 min, individual rats): >1000 ng/mL and 21 ng/mL and 19.3 ng/mL and 15.2 ng/mL and 59.6 ng/mL and 17.92 ng/mL | Angiotensin (1-7) concentration (ID 0.3 ml B [10 mg/ml, 10 mg/ml LLC, 400 mM Citrate pH 3.5, 150 mM NaCl], time point 20 min, individual rats): 59.9 ng/mL and 7.35 ng/mL and 6.02 ng/mL (2×) and 18.4 ng/mL and 51.2 ng/mL | Angiotensin (1-7) concentration (ID 0.3 ml B [10 mg/ml, 10 mg/ml LLC, 400 mM Citrate pH 3.5, 150 mM NaCl], time point 40 min, individual rats): 4.88 ng/mL and 5.6 ng/mL and 2.32 ng/mL and 5.05 ng/mL and 11.7 ng/mL and 1.11 ng/mL | Angiotensin (1-7) concentration (ID 0.3 ml B [10 mg/ml, 10 mg/ml LLC, 400 mM Citrate pH 3.5, 150 mM NaCl], time point 60 min, individual rats): 4.74 ng/mL and 1.7 ng/mL and 3.99 ng/mL and 6.36 ng/mL and 10.9 ng/mL and 3.48 ng/mL | Angiotensin (1-7) concentration (ID 0.3 ml B [10 mg/ml, 10 mg/ml LLC, 400 mM Citrate pH 3.5, 150 mM NaCl], time point 90 min, individual rats): 3.93 ng/mL and 3.99 ng/mL and 1.11 ng/mL and 4.43 ng/mL and 4.74 ng/mL and 3.39 ng/mL | AUC0-90 [3]: 9,257 ng*min/mL and 20,442 ng*min/mL and 7,394 ng*min/mL and 2,252 ng*min/mL (2×) and 6,495 ng*min/mL | Cmax [3]: 879.0 ng/mL and >1000 ng/mL and 468.0 ng/mL and 83.0 ng/mL (2×) and 735.0 ng/mL | Half-Life [3]: 11.9 min and 29.1 min and 13.9 min and 18.3 min (2×) and 17.9 min | Angiotensin (1-7) concentration (ID 0.3 ml C [10 mg/ml, Captopril 0.5 mg/ml, 10 mg/ml LLC, 400 mM Citrate pH 3.5, 150 mM NaCl], time point 0 min (before administration), Average): 1.1 ng/mL | AUC0-90 [4]: 26,654 ng*min/mL and 1,008 ng*min/mL and 7,641 ng*min/mL and 10,668 ng*min/mL and 6,228 ng*min/mL and 3,862 ng*min/mL | Cmax [4]: <1000 ng/mL and 33.5 ng/mL and 504 ng/mL and 746.0 ng/mL and 391.25 ng/mL and 432.85 ng/mL | Half-Life [4]: 10.55 min and 7.97 min and 15.45 min and 11.94 min and 12.86 min and 25.62 min | Angiotensin (1-7) concentration (ID 0.3 ml C [10 mg/ml, Captopril 5 mg/ml, 10 mg/ml LLC, 400 mM Citrate pH 3.5, 150 mM NaCl], time point 0 min (before administration), Average): 2.42 ng/mL | Total mean A(1-7) exposure over the observation period (0.3 mL of 10 mg/mL A(1-7) formulated in PBS, 6 rats): 403 ng·min/mL | Total mean A(1-7) exposure over the observation period (0.3 mL of 10 mg/mL A(1-7) with 0.5 mg/mL captopril (as printed in the text on Table 5), 10 mg/mL LLC, 400 mM Citrate, 150 mM NaCl pH 3.5, six rats): 9,399 ng*min/mL | Total mean A(1-7) exposure over the observation period (0.3 mL of 10 mg/mL A(1-7) with 0.5 mg/mL captopril, 10 mg/mL LLC, 400 mM Citrate, 150 mM NaCl pH 3.5, seven rats (Table 4)): 7,152 ng*min/mL | Total mean A(1-7) exposure over the observation period (0.3 mL of 10 mg/mL A(1-7) with 10 mg/mL LLC, 400 mM Citrate, 150 mM NaCl pH 3.5): 4,274 ng*min/mL | Half-life and total exposure compared to the baseline profile of angiotensin (1-7) delivered in PBS (formulation according to the invention (citrate, LLC, with or without captopril), rat model mimicking oral delivery): significantly improved half-life and total exposure | level at 0 h (rat, plasma, 3 mg per rat, pH 3.5, ID 0.3 ml B [10 mg/ml, 10 mg/ml LLC, 400 mM Citrate pH 3.5, 150 mM NaCl], time point 0 min (before administration), Average): 1.51 ng/mL | level at 10 min (rat, plasma, 3 mg per rat, pH 3.5, ID 0.3 ml B [10 mg/ml, 10 mg/ml LLC, 400 mM Citrate pH 3.5, 150 mM NaCl], time point 10 min, Average): 204 ng/mL | level at 20 min (rat, plasma, 3 mg per rat, pH 3.5, ID 0.3 ml B [10 mg/ml, 10 mg/ml LLC, 400 mM Citrate pH 3.5, 150 mM NaCl], time point 20 min, Average): 24.8 ng/mL | level at 40 min (rat, plasma, 3 mg per rat, pH 3.5, ID 0.3 ml B [10 mg/ml, 10 mg/ml LLC, 400 mM Citrate pH 3.5, 150 mM NaCl], time point 40 min, Average): 5.11 ng/mL | level at 1 h (rat, plasma, 3 mg per rat, pH 3.5, ID 0.3 ml B [10 mg/ml, 10 mg/ml LLC, 400 mM Citrate pH 3.5, 150 mM NaCl], time point 60 min, Average): 5.2 ng/mL | level at 1.5 h (rat, plasma, 3 mg per rat, pH 3.5, ID 0.3 ml B [10 mg/ml, 10 mg/ml LLC, 400 mM Citrate pH 3.5, 150 mM NaCl], time point 90 min, Average): 3.6 ng/mL | level at 0 h (rat, plasma, 3 mg, ID 0.3 ml A [10 mg/ml in PBS], time point 0 min (before administration), Average): 1.74 ng/mL | level at 5 min (rat, plasma, 3 mg, ID 0.3 ml A [10 mg/ml in PBS], time point 5 min, Average): 4.18 ng/mL | level at 10 min (rat, plasma, 3 mg, ID 0.3 ml A [10 mg/ml in PBS], time point 10 min, Average): 2.85 ng/mL | level at 20 min (rat, plasma, 3 mg, ID 0.3 ml A [10 mg/ml in PBS], time point 20 min, Average): 3.58 ng/mL | level at 40 min (rat, plasma, 3 mg, ID 0.3 ml A [10 mg/ml in PBS], time point 40 min, Average): 4.37 ng/mL | level at 1 h (rat, plasma, 3 mg, ID 0.3 ml A [10 mg/ml in PBS], time point 60 min, Average): 5.67 ng/mL | level at 1.5 h (rat, plasma, 3 mg, ID 0.3 ml A [10 mg/ml in PBS], time point 90 min, Average): 4.96 ng/mL | level at 5 min (rat, plasma, 3 mg, pH 3.5, ID 0.3 ml B [10 mg/ml, 10 mg/ml LLC, 400 mM Citrate pH 3.5, 150 mM NaCl], time point 5 min, Average): 417 ng/mL | AUC(0-t) (rat, plasma, other: intra-duodenal injection (ID), 3 mg, ID 0.3 ml A [10 mg/ml in PBS], Average (PK value of the mean concentrations), read-out: AUC0-90 (converted)): 6.73 ng·h/mL | Cmax (rat, plasma, other: intra-duodenal injection (ID), 3 mg, ID 0.3 ml A [10 mg/ml in PBS], Average (PK value of the mean concentrations), read-out: Cmax): 5.7 ng/mL | Half-Life (rat, plasma, other: intra-duodenal injection (ID), 3 mg, ID 0.3 ml A [10 mg/ml in PBS], Average (PK value of the mean concentrations), read-out: Half-Life): 155 min
